According to PMC12298351, “Novel 3,19-(N-Phenyl-3-(4-fluorophenyl)-pyrazole) Acetal of Andrographolide Promotes Cell Cycle Arrest and Apoptosis in MDA-MB-231 Breast Cancer Cells” (Pharmaceuticals, 2025):

What was measured:
[1] = system: TK-10; assay type: cell-based; settings: TK-10, Renal
[2] = system: DU-145; settings: DU-145, Prostate
[3] = system: SN12C
[4] = system: A549/ATCC
[5] = system: SK-MEL-28; settings: SK-MEL-28, Melanoma
[6] = system: NCI/ADR-RES
[7] = system: UACC-62; settings: UACC-62, Melanoma
[8] = system: A498; settings: A498, Renal
[9] = system: U251; settings: U251, CNS
[10] = system: MCF7; settings: MCF7, Breast
[11] = system: M14; assay type: cell-based; settings: M14, Melanoma
[12] = system: KM12; settings: KM12, Colon
[13] = system: LOX IMVI
[14] = system: RXF 393; settings: RXF 393, Renal
[15] = system: ACHN
[16] = system: SK-OV-3; settings: SK-OV-3, Ovarian
[17] = system: OVCAR-8; settings: OVCAR-8, Ovarian
[18] = system: EKVX
[19] = system: CAKI-1; settings: CAKI-1, Renal
[20] = system: SR
[21] = system: IGROV1; settings: IGROV1, Ovarian
[22] = system: RPMI-8226; settings: RPMI-8226, Leukemia
[23] = system: OVCAR-3; settings: OVCAR-3, Ovarian
[24] = system: MDA-MB-468; settings: MDA-MB-468, Breast
[25] = system: K-562; settings: K-562, Leukemia
[26] = system: CCRF-CEM
[27] = system: NCI-H460
[28] = system: SW-620; settings: SW-620, Colon
[29] = system: SF-268; settings: SF-268, CNS
[30] = system: UACC-257; settings: UACC-257, Melanoma
[31] = system: UO-31; settings: UO-31, Renal
[32] = system: HOP-62
[33] = read-out: 50% lethal concentration (LC50), Renal
[34] = read-out: 50% lethal concentration (LC50), Non-Small Cell Lung
[35] = read-out: 50% lethal concentration (LC50)
[36] = read-out: 50% lethal concentration (LC50), Leukemia

**Q.** `C=C1CCC2C3(C)COC(c4cn(-c5ccccc5)nc4-c4ccc(Cl)cc4)OC3CCC2(C)C1CC=C1C(=O)OCC1O` (centres unmarked) [1g] was tested. Which GI50 [1] did it give?
**A.** 1.33 µM

**Q.** And the Total growth inhibition (TGI) [1]?
**A.** 2.74 µM

**Q.** What about the GI50 [2] of the same molecule?
**A.** 2.05 µM

**Q.** What about the Total growth inhibition (TGI) [2] of the same molecule?
**A.** 4.1 µM

**Q.** What about the GI50 ([3]; Renal) of the same molecule?
**A.** 1.67 µM

**Q.** What about the Total growth inhibition (TGI) ([3]; Renal) of the same molecule?
**A.** 3.57 µM

**Q.** What about the CC50 [3, 33] of the same molecule?
**A.** 7.61 µM

**Q.** What about the Total growth inhibition (TGI) ([4]; Non-Small Cell Lung) of the same molecule?
**A.** 36.3 µM

**Q.** And the GI50 ([4]; Non-Small-Cell Lung)?
**A.** 3.57 µM

**Q.** What about the CC50 [4, 34] of the same molecule?
**A.** > 100 µM

**Q.** And the GI50 [5]?
**A.** 1.78 µM

**Q.** And the Total growth inhibition (TGI) [5]?
**A.** 3.36 µM

**Q.** And the CC50 [5, 35]?
**A.** 6.35 µM

**Q.** And the GI50 ([6]; Ovarian)?
**A.** 1.83 µM

**Q.** What about the Total growth inhibition (TGI) ([6]; Ovarian) of the same molecule?
**A.** 4.24 µM

**Q.** And the CC50 ([6]; read-out: 50% lethal concentration (LC50), Ovarian)?
**A.** 9.87 µM

**Q.** And the GI50 [7]?
**A.** 1.68 µM

**Q.** And the Total growth inhibition (TGI) [7]?
**A.** 3.27 µM

**Q.** What about the CC50 [7, 35] of the same molecule?
**A.** 6.39 µM

**Q.** What about the GI50 [8] of the same molecule?
**A.** 5.2 µM

**Q.** And the Total growth inhibition (TGI) [8]?
**A.** 19 µM

**Q.** What about the CC50 [8, 35] of the same molecule?
**A.** 53.7 µM

**Q.** And the GI50 [9]?
**A.** 2.39 µM

**Q.** And the Total growth inhibition (TGI) [9]?
**A.** 3.19 µM

**Q.** What about the GI50 [10] of the same molecule?
**A.** 1.51 µM

**Q.** And the Total growth inhibition (TGI) [10]?
**A.** > 100 µM

**Q.** And the CC50 [10, 35]?
**A.** 42.8 µM

**Q.** And the GI50 [11]?
**A.** 1.84 µM

**Q.** And the Total growth inhibition (TGI) [11]?
**A.** 3.69 µM

**Q.** And the GI50 [12]?
**A.** 2.29 µM

**Q.** What about the Total growth inhibition (TGI) [12] of the same molecule?
**A.** 4.92 µM

**Q.** What about the GI50 ([13]; Melanoma) of the same molecule?
**A.** 1.58 µM

**Q.** And the Total growth inhibition (TGI) ([13]; Melanoma)?
**A.** 2.94 µM

**Q.** What about the CC50 ([13]; read-out: 50% lethal concentration (LC50), Melanoma) of the same molecule?
**A.** 5.48 µM

**Q.** What about the GI50 [14] of the same molecule?
**A.** 1.79 µM

**Q.** And the Total growth inhibition (TGI) [14]?
**A.** 3.37 µM

**Q.** And the CC50 [14, 35]?
**A.** 6.33 µM

**Q.** And the GI50 ([15]; Renal)?
**A.** 1.89 µM

**Q.** What about the Total growth inhibition (TGI) ([15]; Renal) of the same molecule?
**A.** 3.95 µM

**Q.** And the CC50 [15, 33]?
**A.** 8.23 µM

**Q.** And the GI50 [16]?
**A.** 3.04 µM

**Q.** What about the Total growth inhibition (TGI) [16] of the same molecule?
**A.** 1.67 µM

**Q.** And the CC50 [16, 35]?
**A.** > 100 µM

**Q.** What about the GI50 [17] of the same molecule?
**A.** 1.95 µM

**Q.** What about the Total growth inhibition (TGI) [17] of the same molecule?
**A.** 4.97 µM

**Q.** And the CC50 [17, 35]?
**A.** > 100 µM

**Q.** What about the Total growth inhibition (TGI) ([18]; Non-Small Cell Lung) of the same molecule?
**A.** 5.28 µM

**Q.** And the GI50 ([18]; Non-Small-Cell Lung)?
**A.** 2.24 µM

**Q.** What about the CC50 [18, 34] of the same molecule?
**A.** > 100 µM

**Q.** And the GI50 [19]?
**A.** 1.63 µM

**Q.** And the Total growth inhibition (TGI) [19]?
**A.** 3.28 µM

**Q.** What about the CC50 [19, 35] of the same molecule?
**A.** 6.59 µM

**Q.** And the GI50 ([20]; Leukemia)?
**A.** 2.53 µM

**Q.** And the Total growth inhibition (TGI) ([20]; Leukemia)?
**A.** > 100 µM

**Q.** What about the CC50 [20, 36] of the same molecule?
**A.** > 100 µM

**Q.** And the GI50 [21]?
**A.** 4.29 µM

**Q.** And the Total growth inhibition (TGI) [21]?
**A.** 46.1 µM

**Q.** And the CC50 [21, 35]?
**A.** > 100 µM

**Q.** And the GI50 [22]?
**A.** 2.46 µM

**Q.** And the Total growth inhibition (TGI) [22]?
**A.** > 100 µM

**Q.** And the CC50 [22, 35]?
**A.** > 100 µM

**Q.** And the GI50 [23]?
**A.** 1.78 µM

**Q.** What about the Total growth inhibition (TGI) [23] of the same molecule?
**A.** 3.72 µM

**Q.** And the CC50 [23, 35]?
**A.** 7.77 µM

**Q.** And the GI50 [24]?
**A.** 2 µM

**Q.** What about the Total growth inhibition (TGI) [24] of the same molecule?
**A.** 4.49 µM

**Q.** What about the CC50 [24, 35] of the same molecule?
**A.** 6.36 µM

**Q.** And the GI50 [25]?
**A.** 3.67 µM

**Q.** And the Total growth inhibition (TGI) [25]?
**A.** > 100 µM

**Q.** What about the CC50 [25, 35] of the same molecule?
**A.** > 100 µM

**Q.** What about the GI50 ([26]; Leukemia) of the same molecule?
**A.** 0.92 µM

**Q.** What about the Total growth inhibition (TGI) ([26]; Leukemia) of the same molecule?
**A.** > 100 µM

**Q.** What about the CC50 [26, 36] of the same molecule?
**A.** > 100 µM

**Q.** And the Total growth inhibition (TGI) ([27]; NCI-H460, Non-Small Cell Lung)?
**A.** 3.72 µM

**Q.** And the GI50 ([27]; NCI-H460, Non-Small-Cell Lung)?
**A.** 1.79 µM

**Q.** And the CC50 ([27]; read-out: 50% lethal concentration (LC50), NCI-H460, Non-Small Cell Lung)?
**A.** 7.76 µM

**Q.** What about the Total growth inhibition (TGI) [28] of the same molecule?
**A.** > 100 µM

**Q.** And the CC50 [28, 35]?
**A.** > 100 µM

**Q.** What about the GI50 [29] of the same molecule?
**A.** 2.39 µM

**Q.** And the Total growth inhibition (TGI) [29]?
**A.** 6.32 µM

**Q.** What about the CC50 [29, 35] of the same molecule?
**A.** > 100 µM

**Q.** And the GI50 [30]?
**A.** 1.8 µM

**Q.** And the Total growth inhibition (TGI) [30]?
**A.** 3.63 µM

**Q.** What about the GI50 [31] of the same molecule?
**A.** 1.99 µM

**Q.** What about the Total growth inhibition (TGI) [31] of the same molecule?
**A.** 4.17 µM

**Q.** And the CC50 [31, 35]?
**A.** 5.6 µM

**Q.** And the Total growth inhibition (TGI) ([32]; HOP-62, Non-Small Cell Lung)?
**A.** 4.95 µM

**Q.** And the GI50 ([32]; HOP-62, Non-Small-Cell Lung)?
**A.** 2.36 µM

**Q.** And the CC50 ([32]; read-out: 50% lethal concentration (LC50), HOP-62, Non-Small Cell Lung)?
**A.** > 100 µM
